These compounds were tested against BCL6 (Homo sapiens (Human), UniProt P41182) (assay: Immunofluorescence high content imaging of BCL6 degradation in T47D cells). Details: T47D cells.
Format: cell-based
Method in brief: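 Seed T47D in RPMI1640-10% FBS to reach ~70-90% confluence at endpoint; add degrader next day (11-point 3-fold series, top 0.1 or 1 μM final) for 3 days. Then fix, permeabilize, stain BCL6 with nuclear Hoechst, and image.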

Row | Dmax [%] | IC50 [nM] | SMILES
1 | ≥ 70 | 10 to 50 | CNC(=O)COc1cc2cc(Nc3nc(N4CCC(OC5CC6(CCN(c7ccc(C(=O)NC8CCC(=O)NC8=O)c(OC)c7)CC6)C5)CC4)ncc3Cl)ccc2n(C(C)C)c1=O (stereo not drawn) [compound 432, 4-[2-({1-[5-chloro-4-({3-[(methylcarbamoyl)methoxy]-2-oxo-1-(propan-2-yl)-1,2-dihydroquinolin-6-yl}amino)pyrimidin-2-yl]piperidin-4-yl}oxy)-7-azaspiro[3.5]nonan-7-yl]-N-(2,6-dioxopiperidin-3-yl)-2-methoxybenzamide]
2 | ≥ 70 | – | CNC(=O)COc1cc2cc(Nc3nc(N4CCC(OC5CC6(CCN(c7cccc(C(=O)NC8CCC(=O)NC8=O)c7F)CC6)C5)CC4)ncc3Cl)ccc2n(C(C)C)c1=O (stereo not drawn) [compound 433, 3-[2-({1-[5-chloro-4-({3-[(methylcarbamoyl)methoxy]-2-oxo-1-(propan-2-yl)-1,2-dihydroquinolin-6-yl}amino)pyrimidin-2-yl]piperidin-4-yl}oxy)-7-azaspiro[3.5]nonan-7-yl]-N-(2,6-dioxopiperidin-3-yl)-2-fluorobenzamide]
3 | 50 to 70 | < 10 | CNC(=O)COc1cc2cc(Nc3nc(N4CCC(OC5CCC6(CC5)CN(c5cccc7c5C(=O)N(C5CCC(=O)NC5=O)C7=O)C6)CC4)ncc3Cl)ccc2n(C(C)C)c1=O (stereo not drawn) [compound 434, 2-{[6-({5-chloro-2-[4-({2-[2-(2,6-dioxopiperidin-3-yl)-1,3-dioxo-2,3-dihydro-1H-isoindol-4-yl]-2-azaspiro[3.5]nonan-7-yl}oxy)piperidin-1-yl]pyrimidin-4-yl}amino)-2-oxo-1-(propan-2-yl)-1,2-dihydroquinolin-3-yl]oxy}-N-methylacetamide]
4 | ≥ 70 | < 10 | CNC(=O)COc1cc2cc(Nc3nc(N4CCC(CN5CC6(CCN(c7ccc8c(c7)CN(C7CCC(=O)NC7=O)C8=O)CC6)C5)CC4)ncc3Cl)ccc2n(C(C)C)c1=O (stereo not drawn) [compound 436, 2-{[6-({5-chloro-2-[4-({7-[2-(2,6-dioxopiperidin-3-yl)-1-oxo-2,3-dihydro-1H-isoindol-5-yl]-2,7-diazaspiro[3.5]nonan-2-yl}methyl)piperidin-1-yl]pyrimidin-4-yl}amino)-2-oxo-1-(propan-2-yl)-1,2-dihydroquinolin-3-yl]oxy}-N-methylacetamide]
5 | ≥ 70 | < 10 | CNC(=O)COc1cc2cc(Nc3nc(N4CCC(CN5CCC6(CCN(c7ccc8c(c7)CN(C7CCC(=O)NC7=O)C8=O)C6)C5)CC4)ncc3Cl)ccc2n(C(C)C)c1=O (stereo not drawn) [compound 437, 2-{[6-({5-chloro-2-[4-({7-[2-(2,6-dioxopiperidin-3-yl)-1-oxo-2,3-dihydro-1H-isoindol-5-yl]-2,7-diazaspiro[4.4]nonan-2-yl}methyl)piperidin-1-yl]pyrimidin-4-yl}amino)-2-oxo-1-(propan-2-yl)-1,2-dihydroquinolin-3-yl]oxy}-N-methylacetamide]
6 | ≥ 70 | 10 to 50 | CNC(=O)COc1cc2cc(Nc3nc(N4CCC(CN5CC6(CCN(c7ccc(C(=O)NC8CCC(=O)NC8=O)c(OC)c7)CC6)C5)CC4)ncc3Cl)ccc2n(C(C)C)c1=O (stereo not drawn) [compound 438, 4-[2-({1-[5-chloro-4-({3-[(methylcarbamoyl)methoxy]-2-oxo-1-(propan-2-yl)-1,2-dihydroquinolin-6-yl}amino)pyrimidin-2-yl]piperidin-4-yl}methyl)-2,7-diazaspiro[3.5]nonan-7-yl]-N-(2,6-dioxopiperidin-3-yl)-2-methoxybenzamide]
7 | 50 to 70 | < 10 | CNC(=O)COc1cc2cc(Nc3nc(N4CCC(CN5CC6(CCN(c7cccc8c7C(=O)N(C7CCC(=O)NC7=O)C8=O)CC6)C5)CC4)ncc3Cl)ccc2n(C(C)C)c1=O (stereo not drawn) [compound 439, 2-{[6-({5-chloro-2-[4-({7-[2-(2,6-dioxopiperidin-3-yl)-1,3-dioxo-2,3-dihydro-1H-isoindol-4-yl]-2,7-diazaspiro[3.5]nonan-2-yl}methyl)piperidin-1-yl]pyrimidin-4-yl}amino)-2-oxo-1-(propan-2-yl)-1,2-dihydroquinolin-3-yl]oxy}-N-methylacetamide]
8 | ≥ 70 | < 10 | CNC(=O)COc1cc2cc(Nc3nc(N4CCC(CN5CC6(CCN(c7cccc(C(=O)NC8CCC(=O)NC8=O)c7F)CC6)C5)CC4)ncc3Cl)ccc2n(C(C)C)c1=O (stereo not drawn) [compound 440, 3-[2-({1-[5-chloro-4-({3-[(methylcarbamoyl)methoxy]-2-oxo-1-(propan-2-yl)-1,2-dihydroquinolin-6-yl}amino)pyrimidin-2-yl]piperidin-4-yl}methyl)-2,7-diazaspiro[3.5]nonan-7-yl]-N-(2,6-dioxopiperidin-3-yl)-2-fluorobenzamide]
9 | – | ≥ 100 | CNC(=O)COc1cc2cc(Nc3nc(N4CCC(CN5CC6(CCN(c7cccc(C(=O)NC8CCC(=O)NC8=O)c7OC)CC6)C5)CC4)ncc3Cl)ccc2n(C(C)C)c1=O (stereo not drawn) [compound 441, 3-[2-({1-[5-chloro-4-({3-[(methylcarbamoyl)methoxy]-2-oxo-1-(propan-2-yl)-1,2-dihydroquinolin-6-yl}amino)pyrimidin-2-yl]piperidin-4-yl}methyl)-2,7-diazaspiro[3.5]nonan-7-yl]-N-(2,6-dioxopiperidin-3-yl)-2-methoxybenzamide]
10 | ≥ 70 | < 10 | CNC(=O)COc1cc2cc(Nc3nc(N4CCC(CN5CCC6(CC5)CN(c5cccc7c5CN(C5CCC(=O)NC5=O)C7=O)C6)CC4)ncc3Cl)ccc2n(C(C)C)c1=O (stereo not drawn) [compound 442, 2-{[6-({5-chloro-2-[4-({2-[2-(2,6-dioxopiperidin-3-yl)-1-oxo-2,3-dihydro-1H-isoindol-4-yl]-2,7-diazaspiro[3.5]nonan-7-yl}methyl)piperidin-1-yl]pyrimidin-4-yl}amino)-2-oxo-1-(propan-2-yl)-1,2-dihydroquinolin-3-yl]oxy}-N-methylacetamide]

Further lines, the compound ahead of its results:

Row | SMILES | Dmax [%] | IC50 [nM]
11 | CNC(=O)COc1cc2cc(Nc3nc(N4CCC(CN5CCC6(CC5)CN(c5ccc(C(=O)NC7CCC(=O)NC7=O)c(OC)c5)C6)CC4)ncc3Cl)ccc2n(C(C)C)c1=O (stereo not drawn) [compound 425, 4-[7-({1-[5-chloro-4-({3-[(methylcarbamoyl)methoxy]-2-oxo-1-(propan-2-yl)-1,2-dihydroquinolin-6-yl}amino)pyrimidin-2-yl]piperidin-4-yl}methyl)-2,7-diazaspiro[3.5]nonan-2-yl]-N-(2,6-dioxopiperidin-3-yl)-2-methoxybenzamide] | 50 to 70 | < 10
12 | CNC(=O)COc1cc2cc(Nc3nc(N4CC5(CCN(CC6CCN(c7cccc8c7C(=O)N(C7CCC(=O)NC7=O)C8=O)CC6)CC5)C4)ncc3Cl)ccc2n(C(C)C)c1=O (stereo not drawn) [compound 426, 2-{[6-({5-chloro-2-[7-({1-[2-(2,6-dioxopiperidin-3-yl)-1,3-dioxo-2,3-dihydro-1H-isoindol-4-yl]piperidin-4-yl}methyl)-2,7-diazaspiro[3.5]nonan-2-yl]pyrimidin-4-yl}amino)-2-oxo-1-(propan-2-yl)-1,2-dihydroquinolin-3-yl]oxy}-N-methylacetamide] | ≥ 70 | –
13 | CNC(=O)COc1cc2cc(Nc3nc(N4CCC5(CC4)CC(OC4CCN(c6cccc7c6CN(C6CCC(=O)NC6=O)C7=O)CC4)C5)ncc3Cl)ccc2n(C(C)C)c1=O (stereo not drawn) [compound 427, 2-{[6-({5-chloro-2-[2-({1-[2-(2,6-dioxopiperidin-3-yl)-1-oxo-2,3-dihydro-1H-isoindol-4-yl]piperidin-4-yl}oxy)-7-azaspiro[3.5]nonan-7-yl]pyrimidin-4-yl}amino)-2-oxo-1-(propan-2-yl)-1,2-dihydroquinolin-3-yl]oxy}-N-methylacetamide] | ≥ 70 | < 10
14 | CNC(=O)COc1cc2cc(Nc3nc(N4CCC(CN5CCC(c6cc(C(=O)N7CCC7)cc(N7CCC(=O)NC7=O)c6)CC5)CC4)ncc3Cl)ccc2n(C(C)C)c1=O [compound 428, 2-{[6-({2-[4-({4-[3-(azetidine-1-carbonyl)-5-(2,4-dioxo-1,3-diazinan-1-yl)phenyl]piperidin-1-yl}methyl)piperidin-1-yl]-5-chloropyrimidin-4-yl}amino)-2-oxo-1-(propan-2-yl)-1,2-dihydroquinolin-3-yl]oxy}-N-methylacetamide] | – | ≥ 100
15 | CNC(=O)COc1cc2cc(Nc3nc(N4CCC(OC5CC6(C5)CN(c5ccc(C(=O)NC7CCC(=O)NC7=O)c(OC)c5)C6)CC4)ncc3Cl)ccc2n(C(C)C)c1=O (stereo not drawn) [compound 429, 4-[6-({1-[5-chloro-4-({3-[(methylcarbamoyl)methoxy]-2-oxo-1-(propan-2-yl)-1,2-dihydroquinolin-6-yl}amino)pyrimidin-2-yl]piperidin-4-yl}oxy)-2-azaspiro[3.3]heptan-2-yl]-N-(2,6-dioxopiperidin-3-yl)-2-methoxybenzamide] | ≥ 70 | < 10
16 | CNC(=O)COc1cc2cc(Nc3nc(N4CCC(OC5CC6(C5)CN(c5cccc(C(=O)NC7CCC(=O)NC7=O)c5F)C6)CC4)ncc3Cl)ccc2n(C(C)C)c1=O (stereo not drawn) [compound 430, 3-[6-({1-[5-chloro-4-({3-[(methylcarbamoyl)methoxy]-2-oxo-1-(propan-2-yl)-1,2-dihydroquinolin-6-yl}amino)pyrimidin-2-yl]piperidin-4-yl}oxy)-2-azaspiro[3.3]heptan-2-yl]-N-(2,6-dioxopiperidin-3-yl)-2-fluorobenzamide] | 50 to 70 | 10 to 50
17 | CNC(=O)COc1cc2cc(Nc3nc(N4CCC(OC5CC6(CCN(c7ccc8c(c7)CN(C7CCC(=O)NC7=O)C8=O)CC6)C5)CC4)ncc3Cl)ccc2n(C(C)C)c1=O (stereo not drawn) [compound 431, 2-{[6-({5-chloro-2-[4-({7-[2-(2,6-dioxopiperidin-3-yl)-1-oxo-2,3-dihydro-1H-isoindol-5-yl]-7-azaspiro[3.5]nonan-2-yl}oxy)piperidin-1-yl]pyrimidin-4-yl}amino)-2-oxo-1-(propan-2-yl)-1,2-dihydroquinolin-3-yl]oxy}-N-methylacetamide] | 50 to 70 | < 10
